melting point [°C]	Compound
248 to 250	Nc1nc(-c2ccccc2)c(-c2ccncc2)s1 [Reference Example 13-15, [4-phenyl-5-(4-pyridyl)-1,3-thiazol-2-yl]amine]
191 to 192	CNc1nc(-c2ccccc2)c(-c2ccncc2)s1 [Reference Example 13-47, N-methyl [4-phenyl-5-(4-pyridyl)-1,3-thiazol-2-yl]amine]
205 to 206	CNc1nc(-c2ccc(F)cc2)c(-c2ccncc2)s1 [Reference Example 13-69, N-methyl [4-(4-fluorophenyl)-5-(4-pyridyl)-1,3-thiazol-2-yl]amine]
206 to 207	CNc1nc(-c2ccc(Br)cc2)c(-c2ccncc2)s1 [Reference Example 13-71, N-methyl [4-(4-bromophenyl)-5-(4-pyridyl)-1,3-thiazol-2-yl]amine]
233 to 234	O=C(Cc1ccccc1)Nc1nc(-c2ccccc2)c(-c2ccncc2)s1 [Reference Example 23-29, 2-phenyl-N-[4-phenyl-5-(4-pyridyl)-1,3-thiazol-2-yl]acetamide]
214 to 216	O=C(CCc1ccccc1)Nc1nc(-c2ccccc2)c(-c2ccncc2)s1 [Reference Example 23-30, 3-phenyl-N-[4-phenyl-5-(4-pyridyl)-1,3-thiazol-2-yl]propionamide]
290 to 293	CC(=O)Nc1nc(-c2cccc(Cl)c2)c(-c2ccncc2)s1 [Reference Example 23-49, N-[4-(3-chlorophenyl)-5-(4-pyridyl)-1,3-thiazol-2-yl]acetamide]
289 to 290	CCC(=O)Nc1nc(-c2cccc(Cl)c2)c(-c2ccncc2)s1 [Reference Example 23-50, N-[4-(3-chlorophenyl)-5-(4-pyridyl)-1,3-thiazol-2-yl]propionamide]
287 to 289	CC(=O)Nc1nc(-c2cccc(C)c2)c(-c2ccncc2)s1 [Reference Example 23-51, N-[4-(3-methylphenyl)-5-(4-pyridyl)-1,3-thiazol-2-yl]acetamide]
258 to 260	CCC(=O)Nc1nc(-c2cccc(C)c2)c(-c2ccncc2)s1 [Reference Example 23-52, N-[4-(3-methylphenyl)-5-(4-pyridyl)-1,3-thiazol-2-yl]propionamide]
294 to 297	CC(=O)Nc1nc(-c2ccccc2)c(-c2ccncc2)s1 [Reference Example 23-71, N-[4-phenyl-5-(4-pyridyl)-1,3-thiazol-2-yl]acetamide]
287 to 289	COc1ccc(-c2nc(Nc3ccccc3)sc2-c2ccncc2)cc1 [Reference Example 23-80, N-phenyl-[4-(4-methoxyphenyl)-5-(4-pyridyl)-1,3-thiazol-2-yl]amine]
175 to 176	CCNc1nc(-c2ccc(OC)cc2)c(-c2ccncc2)s1 [Reference Example 23-269, N-ethyl-[4-(4-methoxyphenyl)-5-(4-pyridyl)-1,3-thiazol-2-yl]amine]
186 to 188	Cc1cc(C)cc(-c2nc(NCc3ccccc3)sc2-c2ccncc2)c1 [Reference Example 23-281, N-benzyl-[4-(3,5-dimethylphenyl)-5-(4-pyridyl)-1,3-thiazol-2-yl]amine]

Further lines, the compound ahead of its results:

Compound	melting point [°C]
CNc1nc(-c2ccc3c(c2)CCC3)c(-c2cccnc2)s1 [13-74]	172 to 173
COc1ccc(-c2nc(N)sc2-c2ccncc2)cc1 [Reference Example 13-14, [4-(4-methoxyphenyl)-5-(4-pyridyl)-1,3-thiazol-2-yl]amine]	282 to 284
Nc1nc(-c2cccc(Cl)c2)c(-c2ccncc2)s1 [Reference Example 23-59, [4-(3-chlorophenyl)-5-(4-pyridyl)-1,3-thiazol-2-yl]amine]	256 to 258
Nc1nc(-c2ccc(Cl)cc2)c(-c2ccncc2)s1 [Reference Example 23-61, [4-(4-chlorophenyl)-5-(4-pyridyl)-1,3-thiazol-2-yl]amine]	> 300
Cc1ccc(-c2nc(N)sc2-c2ccncc2)cc1 [Reference Example 23-62, [4-(4-methylphenyl)-5-(4-pyridyl)-1,3-thiazol-2-yl]amine]	296 to 298
COc1ccc(-c2nc(NC(=O)c3cccnc3)sc2-c2ccncc2)cc1 [Reference Example 23-101, N-[4-(4-methoxyphenyl)-5-(4-pyridyl)-1,3-thiazol-2-yl]nicotinamide]	278 to 281
COc1ccc(-c2nc(NC(=O)c3ccncc3)sc2-c2ccncc2)cc1 [Reference Example 23-102, N-[4-(4-methoxyphenyl)-5-(4-pyridyl)-1,3-thiazol-2-yl]isonicotinamide]	295 to 297
Cc1ccc(-c2nc(N)sc2-c2ccncc2)cc1C [Reference Example 23-125, [4-(3,4-dimethylphenyl)-5-(4-pyridyl)-1,3-thiazol-2-yl]amine]	248 to 250
CCNC(=O)Nc1nc(-c2ccc(OC)cc2)c(-c2ccncc2)s1 [Reference Example 23-156, N-ethyl-N′-[4-(4-methoxyphenyl)-5-(4-pyridyl)-1,3-thiazol-2-yl]urea]	224 to 226
Cc1cc(C)cc(-c2nc(NC(=O)c3ccncc3)sc2-c2ccncc2)c1 [Reference Example 23-200, N-[4-(3,5-dimethylphenyl)-5-(4-pyridyl)-1,3-thiazol-2-yl]isonicotinamide]	302 to 304
CCCNc1nc(-c2cc(C)cc(C)c2)c(-c2ccncc2)s1 [Reference Example 23-276, N-propyl-[4-(3,5-dimethylphenyl)-5-(4-pyridyl)-1,3-thiazol-2-yl]amine]	177 to 180
CCCCNc1nc(-c2cc(C)cc(C)c2)c(-c2ccncc2)s1 [Reference Example 23-280, N-butyl-[4-(3,5-dimethylphenyl)-5-(4-pyridyl)-1,3-thiazol-2-yl]amine]	165 to 168
CCCNc1nc(-c2ccc(OC)cc2)c(-c2ccncc2)s1 [Reference Example 23-290, N-propyl-[4-(4-methoxyphenyl)-5-(4-pyridyl)-1,3-thiazol-2-yl]amine]	141 to 142
COc1ccc(-c2nc(NC(C)C)sc2-c2ccncc2)cc1 [Reference Example 23-291, N-isopropyl-[4-(4-methoxyphenyl)-5-(4-pyridyl)-1,3-thiazol-2-yl]amine]	161 to 163
COc1ccc(-c2nc(NC(=O)Nc3ccccc3)sc2-c2ccncc2)cc1 [Reference Example 23-296, N-[4-(4-methoxyphenyl)-5-(4-pyridyl)-1,3-thiazol-2-yl]-N′-phenylurea]	217 to 219
COc1ccc(-c2nc(NC(=O)c3ccc(C(=O)O)cc3)sc2-c2ccncc2)cc1 [Reference Example 23-299, 4-[[[4-(4-methoxyphenyl)-5-(4-pyridyl)-1,3-thiazol-2-yl]amino]carbonyl]benzoic acid]	332 to 335
COc1ccc(-c2nc(-c3ccc(SC)cc3)sc2-c2ccncc2)cc1 [Reference Example 23-300, methyl 4-[2-[4-(methylthio)phenyl]-5-(4-pyridyl)-1,3-thiazol-4-yl]phenyl ether]	127 to 128
O=S(=O)(Cc1ccc(-c2nc(-c3ccc(F)cc3)c(-c3ccncc3)s2)cc1)Cc1ccc(-c2nc(-c3ccc(F)cc3)c(-c3ccncc3)s2)cc1 [Reference Example 23-313, 4-[4-(4-fluorophenyl)-5-(4-pyridyl)-1,3-thiazol-2-yl]phenylmethylsulfone]	191 to 194
O=S(=O)(Cc1ccc(-c2nc(-c3ccc(Cl)cc3)c(-c3ccncc3)s2)cc1)Cc1ccc(-c2nc(-c3ccc(Cl)cc3)c(-c3ccncc3)s2)cc1 [Reference Example 23-314, 4-[4-(4-chlorophenyl)-5-(4-pyridyl)-1,3-thiazol-2-yl]phenylmethylsulfone]	202 to 204
Cc1cc(C)cc(-c2nc(NC(=O)Nc3ccccc3)sc2-c2ccncc2)c1 [Reference Example 23-315, N-[4-(3,5-dimethylphenyl)-5-(4-pyridyl)-1,3-thiazol-2-yl]-N′-phenylurea]	167 to 169
COc1ccc(-c2nc(NC(=O)C(C)O)sc2-c2ccncc2)cc1 (centres unmarked) [Reference Example 23-325, 2-hydroxy-N-[4-(4-methoxyphenyl)-5-(4-pyridyl)-1,3-thiazol-2-yl]propionamide]	221 to 222
Cc1ccc(-c2nc(-c3ccc(CSCc4ccc(-c5nc(-c6ccc(C)c(C)c6)c(-c6ccncc6)s5)cc4)cc3)sc2-c2ccncc2)cc1C [Reference Example 23-326, 4-[4-(3,4-dimethylphenyl)-5-(4-pyridyl)-1,3-thiazol-2-yl]phenylmethylsulfide]	159 to 161
Cc1ccc(-c2nc(-c3ccc(C[S+]([O-])Cc4ccc(-c5nc(-c6ccc(C)c(C)c6)c(-c6ccncc6)s5)cc4)cc3)sc2-c2ccncc2)cc1C [Reference Example 23-327, 4-[4-(3,4-dimethylphenyl)-5-(4-pyridyl)-1,3-thiazol-2-yl]phenylmethylsulfoxide]	161 to 164
Cc1ccc(-c2nc(-c3ccc(CS(=O)(=O)Cc4ccc(-c5nc(-c6ccc(C)c(C)c6)c(-c6ccncc6)s5)cc4)cc3)sc2-c2ccncc2)cc1C [Reference Example 23-328, 4-[4-(3,4-dimethylphenyl)-5-(4-pyridyl)-1,3-thiazol-2-yl]phenylmethylsulfone]	194 to 196
COc1ccc(-c2nc(NC(=O)CO)sc2-c2ccncc2)cc1 [Reference Example 23-329, 2-hydroxy-N-[4-(4-methoxyphenyl)-5-(4-pyridyl)-1,3-thiazol-2-yl]acetamide]	228 to 230
Cc1cc(C)cc(-c2nc(NC(=O)c3ccc(C(=O)O)cc3)sc2-c2ccncc2)c1 [Reference Example 23-337, 4-[[[4-(3,5-dimethylphenyl)-5-(4-pyridyl)-1,3-thiazol-2-yl]amino]carbonyl]benzoic acid]	347 to 349
Cc1cc(C)cc(-c2nc(NC(=O)c3cccc(C(=O)O)c3)sc2-c2ccncc2)c1 [Reference Example 23-342, 3-[[[4-(3,5-dimethylphenyl)-5-(4-pyridyl)-1,3-thiazol-2-yl]amino]carbonyl]benzoic acid]	350 to 353

Reference: patent US6962933B1, “Method for inhibiting p38 MAP kinase or TNF-α production using a 1,3-thiazole” (Takeda Pharmaceutical Company Limited, priority 1999, dated 2005)
